Values quoted from earlier work as cited in patent US11992527B2, “Extracellular vesicles for vaccine delivery” (LONZA SALES AG, priority 2019, dated 2024).

Key:
[1] = Phase 2 study (Palmer 2018)
[2] = tested on: human A2058 melanoma cells; conditions: in vitro, read-out: IC50, inhibition of LPA-1-induced chemotaxis
mouse LPA-1/CHO cells = conditions: in vitro, read-out: IC50, inhibition of LPA-1-induced chemotaxis
[3] = in vivo
[4] = tested on: BALF collagen and protein; macrophage and lymphocyte infiltration induced by bleomycin
[5] = tested on: LPA-induced histamine release; conditions: in mice

Compound	toxicity that led to early termination of the Phase 2 study [1]	IC50 [2] [nM]	IC50 (mouse LPA-1/CHO cells) [nM]	oral bioavailability [3]	ED50, reduction of BALF collagen and protein ([4]; in lungs) [mg/kg]	macrophage and lymphocyte infiltration induced by bleomycin ([4]; in mice)	ED50, block of LPA-induced histamine release [5] [mg/kg]
Cc1noc(-c2ccc(-c3ccc(C4(C(=O)O)CC4)cc3)cc2)c1NC(=O)O[C@H](C)c1ccccc1 [AM152, Cyclopropanecarboxylic acid, 1-[4′-[3-methyl-4-[[[(1R)-1-phenylethoxy]carbonyl]amino]-5-isoxazolyl][1,1′-biphenyl]-4-yl]-]	gall bladder toxicity and early signs of liver toxicity	–	–	–	–	–	–
Cc1noc(-c2ccc(-c3ccc(CC(=O)O)cc3)cc2)c1NC(=O)O[C@H](C)c1ccccc1 [AM095, 1,1′-Biphenyl]-4-acetic acid, 4′-[3-methyl-4-[[[(1R)-1-phenylethoxy]carbonyl]amino]-5-isoxazolyl[ ]-]	–	230	780	orally bioavailable	10	decrease both macrophage and lymphocyte infiltration	8.3
